For data set [1], the system named is S. mansoni juvenile worms. The data set can be described thus: Juvenile worm assay (3 week old worms), single point and dose response. The conditions noted are these: Schistosoma mansoni. The data set is classed as cell-based. As to the method:
(§1) For production of S. mansoni juvenile or adult worms, mice were infected subcutaneously under mild isoflurane (Merial Animal Health Ltd (UK)) anaesthesia with, respectively 1400 (for juveniles) or 450 cercariae (for adults). Worms were recovered from infected mice using sterile techniques by portal perfusion 3 weeks (for juveniles) or 6 weeks (for adults) post-infection using warm perfusion medium (Dulbecco’s Modified Eagle’s Medium [DMEM], 2mM L-glutamine, 100 Units/ml penicillin, 100μg/ml streptomycin, 20mM Hepes, 10 Units/ml heparin [Sigma, UK] [8]. Adult worms were washed free of red blood cells using the perfusion medium, and finally placed in culture in complete medium (cDMEM: DMEM, 2mM L-glutamine, 100 Units/ml penicillin, 100μg/ml streptomycin, 10% foetal calf serum (FCS) at 37°C, in an atmosphere of 5% CO2. Juvenile worms were sedimented successively following washing with cold perfusion medium and then suspended in cold cDMEM until dispensed to avoid attachment to the plastic tubes.
(§2) For the juvenile assay the concentration of worms was adjusted to 40/ml cDMEM and, prior to dispensing, the suspension was cooled on ice to prevent adherence of the worms to the plastic bottles. After swirling to resuspend worms,150μL of suspension was added to the wells of 96 well microtitre plates (Nunc, Thermo Fisher Scientific, UK). Wells were quickly checked and those with <5 worms were marked. The remainder were made up to 200μL and the deficient wells topped up with a worm suspension to ensure that all wells had ≥5 worms. The adult worm assay was as described in [8] except that 1ml cultures containing 3 worm pairs were generally used. Both the juvenile and adult worm assays were assessed for activity on days +1 and +5. Drug effects were determined by assessing the viability of individual worms and calculating the mean percentage inhibition, a hit being defined as ≥70% reduction in viability.
(§3) The primary HTS and subsequent juvenile and adult screens were run as single point (SP) assays at 10–12.5μM depending on the concentrations in the compound collections. Compounds were tested in duplicate. Where necessary, repeat testing was carried out on re-supplied liquid samples. All compounds of interest were re-tested as solid compounds or by repeat synthesis and activity confirmed.
(§4) Compounds with activity against all three parasite stages were tested in parallel dose response (DR) assays against juvenile worms and MRC-5 cells. Promising compounds were then tested in the adult DR. For the parasite DR (larvae, juveniles and adults) the concentrations tested were two fold dilutions starting from 2x the primary screening concentrations (i.e. 20–25μM).
(§5) IC50 values were calculated from the drug concentration–response curves using Microsoft XLfit version 5.1.0.0 (2006–2008 ID Business Solutions Ltd). Results were expressed as the geometric mean IC50.

Data set [2] is described as follows: Cytotoxicity assay (Alamar blue). Particulars: human, MRC5 CC50. The data set is classed as cell-based. How it is done: Activity against mammalian cells was determined using MRC-5 cells. Cells were maintained in Minimum Essential Medium supplemented with glutamax (Gibco, UK), 1% non-essential amino acids (Gibco, UK) and 10% Foetal bovine serum (Gibco, UK). They were harvested by treatment with 0.25% Trypsin-EDTA for 3 minutes and diluted to 1x10^5/ml. 100μl aliquots of the cell suspension were then plated in 96 well plates (Nunc, Thermo Fisher Scientific, UK). The plates were left to incubate for 24 hours at 37°C and 5% CO2 in a humidified incubator. Cytotoxicity DR assays were set up 24 hours post incubation at 5% CO2 and 37°C, with compounds prepared at 3-fold dilutions starting from 50μM. Dilutions were added to the cells such that the final % DMSO/well was 0.5%. Each drug concentration was tested in duplicate. On each 96 well plate there were negative control wells of media only, MRC-5 cells only and MRC-5 cells with 0.5% DMSO. For positive control wells doxorubicin hydrochloride (Sigma-Aldrich, UK) was added to the cells at 100μM concentration. The cultures were then maintained for a further 72 hours at 37°C and 5% CO2. Drug cytotoxicity was determined using the redox indicator Alamar blue (AbD Serotec, UK). 10μl of Alamar Blue was added to each well and the plates incubated for 4 hours at 37°C and 5% CO2 atmosphere. The fluorescence intensity was measured using a Spectramax Gemini plate reader (Molecular Devices, UK) using an excitation wavelength of 530 nm and an emission wavelength of 580 nm.
as §5

Data set [3] relates to S. mansoni schistosomula. Description: Larval HTS and larval dose response (image-based phenotype and motility of schistosomula). The conditions noted are these: for Motility score / Phenotype score: 10μM control wells. Also noted: Motility score: scale not given here. The data set is classed as cell-based, Schistosoma mansoni. How it is done:
Experiments were performed using the Puerto Rican strain of S. mansoni maintained in Biomphalaria glabrata and CD1 mice. The strain of snail was one bred by Prof Mike Doenhoff (Nottingham University) for high susceptibility to S. mansoni and ease of breeding in large numbers to high density. Careful attention was paid to controlling infections with rotifers which otherwise would contaminate the HTS schistosomula preparations as well as affecting snail viability. This included recovery of egg masses on short length pieces of polypropylene tubing placed into the breeding tanks and treatment of these with 3 x 10 seconds immersion in 70% ethanol with 3 minutes soaking in clean water in between alcohol treatments. Schistosomula were mechanically prepared as previously described with the modification of using a 45% and 70% Percoll gradient, and the cercarial heads recovered from the 70% layer. All centrifugation steps were done at 350x g. The schistosomula generated were then incubated overnight in M169 supplemented with 100U/ml Penicillin, 300μg/ml Streptomycin, 0.25μg/ml Fungizone (Amphotericin B) (Gibco, UK) and 5% Foetal Calf serum.
The larval HTS was run as described previously. Compound libraries were provided in 384 well plates as liquid either (i) small volumes in polypropylene 384 V-bottom storage plates (Greinerbio-one) that were diluted and 500nL dispensed into black 384 imaging plates (ViewPlate 6007460; PerkinElmer) using the Biomek FxP (Beckman Coulter) or (ii) in an assay-ready format from which a 40nL volume was transferred into wells of imaging plates. […] Therefore, to prevent fungal contamination 0.25μg/ml (0.27μM) of amphotericin B (AMP-B) was added to cultures both during the overnight culture prior to plating and during the 3 day assay.
The primary HTS and subsequent juvenile and adult screens were run as single point (SP) assays at 10–12.5μM depending on the concentrations in the compound collections. Compounds were tested in duplicate. Where necessary, repeat testing was carried out on re-supplied liquid samples.
as §4, §5

Data set [4] deals with S. mansoni adult worms. The data set can be described thus: Adult worm assay, single point and dose response. In kind it is cell-based. The conditions noted are these: Schistosoma mansoni. How it is done:
as §1, §2, §3, §4, §5

Data set [5] has as its system S. mansoni schistosomula. The data set can be described thus: Larval HTS and larval dose response (image-based phenotype and motility of schistosomula). Particulars: 10μM control wells, -AMP-B. Further details: Motility score: scale not given here. The data set is classed as cell-based, Schistosoma mansoni.
Data set [6] has as its system Pyoellii. Also noted: method as in ChEMBL. The conditions noted are these: reported by Novartis in Science paper; ref ChEMBL; cited from earlier work.
The subject of data set [7] is P. falciparum. Further details: method as in Pubchem. Particulars: ref Pubchem; cited from earlier work.
In data set [8] the test system is S. mansoni schistosomula. Further details: method as in PMID 19597541, PMID 20668553. Particulars: cited from earlier work.
The test system of data set [9] is Cyp2C19. Further details: method as in ChEMBL. Particulars: ref ChEMBL; cited from earlier work.
The subject of data set [10] is Cyp3A4. Further details: method as in ChEMBL. Particulars: ref ChEMBL; cited from earlier work.
Data set [11] relates to TRPC4. Also noted: method as in ChEMBL. Particulars: ref ChEMBL; cited from earlier work.
Data set [12] deals with TrxR1. Further details: method as in ChEMBL. Particulars: ref ChEMBL; cited from earlier work.
[13] abbreviates: Enamine library plates, negative control adjusted to zero.
Where [14] appears, read: GSK library plates, negative control adjusted to zero.
Setting [15] is: Pfizer library plates, negative control adjusted to zero.

SMILES strings stand for the structures. Like-named read-outs stand apart in the source and are kept apart here.

One may read the EC50 as the concentration that produces a half-maximal response. As usually defined, the CC50 is the concentration that lowers cell viability or growth by half. The AC50 is the midpoint of the concentration-response curve, whichever way the signal moves.

In the case of `O=C(C1CCCCC1)N1CC(=O)N2CCc3ccccc3C2C1` (stereo not drawn) [Praziquantel], the inhibition at 12.5 µM in [1] (24 h, day 1, read-out: Juvenile (% motility reduction) DAY 1) was determined as 57%; in data set [1] (120 h, day 5, read-out: Juvenile (% motility reduction) DAY 5) it was 58.4%; in data set [4] (24 h, day 1, read-out: Adult % motility reduction DAY 1) it was 76%; in data set [4] (120 h, day 5, read-out: Adult % motility reduction DAY 5) it was 88%. The EC50 in [1] (first value of cell, geometric mean, * n = 1) came to 4700 nM; in data set [3] (Schistosoma mansoni, 72 h, 3 day assay, geometric mean) it was 1900 nM; in [4] (first value of cell, * n = 1) it was 300 nM. In [2], this molecule had a CC50 at 72 h above 50000 nM. Further, the Motility score in data set [3] (+AMP-B (0.25μg/ml)) is -0.57 ± 0.10; in [3] (setting [13]) it was -0.52 ±0.08; in [3] (setting [14]) it was -0.67 ±0.12; in [3] (MMV library plates, negative control adjusted to zero) it was -0.57 ±0.10; in [3] (setting [15]), -0.63 ±0.07; in data set [5] it was -0.53 ± 0.10. Also, the Phenotype score in data set [3] (+AMP-B (0.25μg/ml)) was -0.38 ± 0.08; in data set [3] (setting [13]), -0.35 ±0.09; in data set [3] (setting [14]), -0.50 ±0.10; in [3] (MMV library plates, mean ±SD, negative control adjusted to zero), -0.37 ±0.09; in data set [3] (setting [15]) it was -0.37 ±0.04; in data set [5], -0.21 ± 0.12.
For the molecule `c1ccc(-c2cc(N3CCN(c4ccccn4)CC3)nc(-c3ccccn3)n2)nc1` [CHEMBL579352], the “activity vs Pyoellii” value in data set [6] is recorded as 17.5 nM. Besides, the “activity vs two Pfalciparum strains” value in [7] was below 100 nM.
Consider `C[C@@H]1[C@H](O)[C@@H](C)/C=C/C=C/C=C/C=C/C=C/C=C/C=C/[C@H](O[C@@H]2O[C@H](C)[C@@H](O)[C@H](N)[C@@H]2O)C[C@@H]2O[C@](O)(C[C@@H](O)C[C@@H](O)[C@H](O)CC[C@@H](O)C[C@@H](O)CC(=O)O[C@H]1C)C[C@H](O)[C@H]2C(=O)O` [AMP-B, amphotericin B], for which, in data set [8], the “concentrations reported to have lethal activity” value was 1 to 10 µM.
As for `Cc1[nH]c2ccccc2c1C(c1ccccn1)N1CCC(C)CC1` (stereo not drawn) [CHEMBL1517121], the concentration at half-maximal activity (AC50) is 13000 nM in data set [9] and 2000 nM in [10].
As for `CCOC(=O)C1CCN(C(c2ccccn2)c2c(C)[nH]c3ccccc23)CC1` (stereo not drawn) [CHEMBL1390809], in data set [11], the “activity as an activator of TRPC4” value is 5 to 10 µM. For the same molecule, in data set [12], the “activity vs TrxR1” value is 1.5 µM.

The values are drawn from article PMC4851381, “High Throughput Screening Identifies Novel Lead Compounds with Activity against Larval, Juvenile and Adult Schistosoma mansoni” (PLoS Neglected Tropical Diseases, 2016).
